Biological target: T1, human capsaicin receptor (Homo sapiens, UniProt Q8NER1)
T1 construct: transfected with the pBK-CMV expression construct encoding the full length human capsaicin receptor; expressed in transfected cells; host or cells: HEK293, stably transfected clonal lines, plasmid pBK-CMV
Experiment: Calcium mobilization assay, determination of antagonist activity (Example 6)
Format: cell-based
Details: concentration giving 50% decrease in the fluorescence response of cells expressing human capsaicin receptor exposed to capsaicin
Method: A cDNA encoding full length human capsaicin receptor (SEQ ID NO:1, 2 or 3 of U.S. Pat. No. 6,482,611) was subcloned in the plasmid pBK-CMV (Stratagene, La Jolla, Calif.) for recombinant expression in mammalian cells.
Human embryonic kidney (HEK293) cells were transfected with the pBK-CMV expression construct encoding the full length human capsaicin receptor using standard methods. The transfected cells were selected for two weeks in media containing G418 (400 μg/ml) to obtain a pool of stably transfected cells. Independent clones were isolated from this pool by limiting dilution to obtain clonal stable cell lines for use in subsequent experiments.
Cells transfected with expression plasmids (as described in Example 4) and thereby expressing human capsaicin receptor are seeded and grown to 70-90% confluency in FALCON black-walled, clear-bottomed 96-well plates (#3904, BECTON-DICKINSON, Franklin Lakes, N.J.). The culture medium is emptied from the 96 well plates and FLUO-3 AM calcium sensitive dye (Molecular Probes, Eugene, Oreg.) is added to each well (dye solution: 1 mg FLUO-3 AM, 440 μL DMSO and 440 μl 20% pluronic acid in DMSO, diluted 1:250 in Krebs-Ringer HEPES (KRH) buffer (25 mM HEPES, 5 mM KCl, 0.96 mM NaH2PO4, 1 mM MgSO4, 2 mM CaCl2, 5 mM glucose, 1 mM probenecid, pH 7.4), 50 μl diluted solution per well). Plates are covered with aluminum foil and incubated at 37° C. for 1-2 hours in an environment containing 5% CO2. After the incubation, the dye is emptied from the plates, and the cells are washed once with KRH buffer, and resuspended in KRH buffer.
To measure the ability of a test compound to agonize or antagonize a calcium mobilization response in cells expressing capsaicin receptors to capsaicin or other vanilloid agonist, the EC50 of the agonist capsaicin is first determined. An additional 20 μl of KRH buffer and 1 μl DMSO is added to each well of cells, prepared as described above. 100 μl capsaicin in KRH buffer is automatically transferred by the FLIPR instrument to each well. Capsaicin-induced calcium mobilization is monitored using either FLUOROSKAN ASCENT (Labsystems; Franklin, Mass.) or FLIPR (fluorometric imaging plate reader system; Molecular Devices, Sunnyvale, Calif.) instruments. Data obtained between 30 and 60 seconds after agonist application are used to generate an 8-point concentration response curve, with final capsaicin concentrations of 1 nM to 3 μM. […] software (Synergy Software, Reading, Pa.) is used to fit the data to the equation: y=a*(1/(1+(b/x)^c)) to determine the 50% excitatory concentration (EC50) for the response. In this equation, y is the maximum fluorescence signal, x is the concentration of the agonist or antagonist (in this case, capsaicin), a is the Emax, b corresponds to the EC50 value and c is the Hill coefficient. Determination Agonist Activity
Test compounds are dissolved in DMSO, diluted in 20 μl KRH buffer so that the final concentration of test compounds in the assay well is between 1 μM and 5 μM, and added to cells prepared as described above. The 96 well plates containing prepared cells and test compounds are incubated in the dark, at room temperature for 0.5 to 6 hours. It is important that the incubation not continue beyond 6 hours. Just prior to determining the fluorescence response, 100 μl capsaicin in KRH buffer at twice the EC50 concentration determined as described above is automatically added by the FLIPR instrument to each well of the 96 well plate for a final sample volume of 200 μl and a final capsaicin concentration equal to the EC50. The final concentration of test compounds in the assay wells is between 1 μM and 5 μM.

T1 sequence (Q8NER1 whole entry): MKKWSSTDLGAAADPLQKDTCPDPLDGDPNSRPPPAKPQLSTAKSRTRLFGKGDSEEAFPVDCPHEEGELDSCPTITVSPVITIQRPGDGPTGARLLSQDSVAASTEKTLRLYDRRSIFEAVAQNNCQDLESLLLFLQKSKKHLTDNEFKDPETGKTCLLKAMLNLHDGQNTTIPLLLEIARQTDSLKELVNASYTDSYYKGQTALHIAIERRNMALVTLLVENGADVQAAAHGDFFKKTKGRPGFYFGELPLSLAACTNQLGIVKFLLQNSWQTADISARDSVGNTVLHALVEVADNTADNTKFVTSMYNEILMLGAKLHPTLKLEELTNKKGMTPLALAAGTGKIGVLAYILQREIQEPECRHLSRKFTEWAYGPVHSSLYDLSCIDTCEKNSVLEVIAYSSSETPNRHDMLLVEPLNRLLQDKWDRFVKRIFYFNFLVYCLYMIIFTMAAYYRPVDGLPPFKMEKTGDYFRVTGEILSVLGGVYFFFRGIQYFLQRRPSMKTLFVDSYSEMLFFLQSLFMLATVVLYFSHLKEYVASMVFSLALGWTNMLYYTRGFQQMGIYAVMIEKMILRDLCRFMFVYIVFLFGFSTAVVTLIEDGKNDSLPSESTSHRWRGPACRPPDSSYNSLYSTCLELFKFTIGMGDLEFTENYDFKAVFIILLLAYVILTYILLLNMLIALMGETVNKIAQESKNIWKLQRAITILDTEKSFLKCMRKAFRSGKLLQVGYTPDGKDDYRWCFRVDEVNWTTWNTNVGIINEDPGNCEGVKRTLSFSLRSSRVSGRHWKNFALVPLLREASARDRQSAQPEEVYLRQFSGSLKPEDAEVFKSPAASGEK

IC50, ≤ 1000 nM:
CC(C)CCNc1nc(Nc2ccc(C(F)(F)F)cc2)nc(OCc2ccccc2C(F)(F)F)n1 [Compound 29, N-(3-Methyl-butyl)-6-(2-trifluoromethyl-benzyloxy)-N′-(4-trifluoromethyl-phenyl)-[1,3,5]triazine-2,4-diamine]
CC(C)(C)c1ccc(Nc2nc(N)nc(OCc3ccccc3Cl)n2)cc1 [Compound 30, N-(4-tert-Butyl-phenyl)-6-(2-chloro-benzyloxy)-[1,3,5]triazine-2,4-diamine]
CC(C)(C)c1ccc(Nc2nc(N)nc(OCc3ccccc3F)n2)cc1 [Compound 31, N-(4-tert-Butyl-phenyl)-6-(2-fluoro-benzyloxy)-[1,3,5]triazine-2,4-diamine]
COc1ccccc1COc1nc(N)nc(Nc2ccc(C(C)(C)C)cc2)n1 [Compound 32, N-(4-tert-Butyl-phenyl)-6-(2-methoxy-benzyloxy)-[1,3,5]triazine-2,4-diamine]
CC(C)(C)c1ccc(Nc2nc(Cl)nc(NCc3ccccc3Cl)n2)cc1 [Compound 33, N-(4-tert-Butyl-phenyl)-6-chloro-N′-(2-chloro-benzyl)-[1,3,5]triazine-2,4-diamine]
CC(C)(C)c1ccc(Nc2nc(Cl)nc(NCc3ccccc3F)n2)cc1 [Compound 34, N-(4-tert-Butyl-phenyl)-6-chloro-N′-(2-fluoro-benzyl)-[1,3,5]triazine-2,4-diamine]
COc1ccccc1CNc1nc(Cl)nc(Nc2ccc(C(C)(C)C)cc2)n1 [Compound 35, N-(4-tert-Butyl-phenyl)-6-chloro-N′-(2-methoxy-benzyl)-[1,3,5]triazine-2,4-diamine]
CC(C)(C)c1ccc(Nc2nc(Cl)nc(NCc3ccccc3C(F)(F)F)n2)cc1 [Compound 36, N-(4-tert-Butyl-phenyl)-6-chloro-N′-(2-trifluoromethyl-benzyl)-[1,3,5]triazine-2,4-diamine]
CC(C)(C)c1ccc(Nc2nc(N)nc(NCc3ccccc3Cl)n2)cc1 [Compound 37, N-(4-tert-Butyl-phenyl)-N′-(2-chloro-benzyl)-[1,3,5]triazine-2,4,6-triamine]
CCOc1nc(NCc2ccccc2Cl)nc(Nc2ccc(C(C)(C)C)cc2)n1 [Compound 38, N-(4-tert-Butyl-phenyl)-N′-(2-chloro-benzyl)-6-ethoxy-[1,3,5]triazine-2,4-diamine]
COc1nc(NCc2ccccc2Cl)nc(Nc2ccc(C(C)(C)C)cc2)n1 [Compound 39, N-(4-tert-Butyl-phenyl)-N′-(2-chloro-benzyl)-6-methoxy-[1,3,5]triazine-2,4-diamine]
Cc1nc(NCc2ccccc2Cl)nc(Nc2ccc(C(C)(C)C)cc2)n1 [Compound 40, N-(4-tert-Butyl-phenyl)-N′-(2-chloro-benzyl)-6-methyl-[1,3,5]triazine-2,4-diamine]
CNc1nc(NCc2ccccc2Cl)nc(Nc2ccc(C(C)(C)C)cc2)n1 [Compound 41, N-(4-tert-Butyl-phenyl)-N′-(2-chloro-benzyl)-N″-methyl-[1,3,5]triazine-2,4,6-triamine]
CC(C)(C)c1ccc(Nc2cc(NCc3ccccc3Cl)ncn2)cc1 [Compound 42, N-(4-tert-Butyl-phenyl)-N′-(2-chloro-benzyl)-pyrimidine-4,6-diamine]
CC(C)(C)c1ccc(Nc2nc(N)nc(NCc3ccccc3F)n2)cc1 [Compound 43, N-(4-tert-Butyl-phenyl)-N′-(2-fluoro-benzyl)-[1,3,5]triazine-2,4,6-triamine]
CC(C)(C)c1ccc(Nc2cc(NCc3ccccc3F)ncn2)cc1 [Compound 44, N-(4-tert-Butyl-phenyl)-N′-(2-fluoro-benzyl)-pyrimidine-4,6-diamine]
COc1ccccc1CNc1ncnc(Nc2ccc(C(C)(C)C)cc2)n1 [Compound 45, N-(4-tert-Butyl-phenyl)-N′-(2-methoxy-benzyl)-[1,3,5]triazine-2,4-diamine]
COc1ccccc1CNc1nc(N)nc(Nc2ccc(C(C)(C)C)cc2)n1 [Compound 46, N-(4-tert-Butyl-phenyl)-N′-(2-methoxy-benzyl)-[1,3,5]triazine-2,4,6-triamine]
COc1ccccc1CNc1cc(Nc2ccc(C(C)(C)C)cc2)ncn1 [Compound 47, N-(4-tert-Butyl-phenyl)-N′-(2-methoxy-benzyl)-pyrimidine-4,6-diamine]
CC(C)(C)c1ccc(Nc2cc(NCc3ccccc3C(F)(F)F)ncn2)cc1 [Compound 49, N-(4-tert-Butyl-phenyl)-N′-(2-trifluoromethyl-benzyl)-pyrimidine-4,6-diamine]
CC(C)(C)c1ccc(Nc2cc(NCc3cccc(F)c3)ncn2)cc1 [Compound 50, N-(4-tert-Butyl-phenyl)-N′-(3-fluoro-benzyl)-pyrimidine-4,6-diamine]
COc1cccc(CNc2cc(Nc3ccc(C(C)(C)C)cc3)ncn2)c1 [Compound 51, N-(4-tert-Butyl-phenyl)-N′-(3-methoxy-benzyl)-pyrimidine-4,6-diamine]
CC(C)(C)c1ccc(Nc2cc(NCc3ccc(Cl)cc3)ncn2)cc1 [Compound 52, N-(4-tert-Butyl-phenyl)-N′-(4-chloro-benzyl)-pyrimidine-4,6-diamine]
COc1ccc(CNc2cc(Nc3ccc(C(C)(C)C)cc3)ncn2)cc1 [Compound 53, N-(4-tert-Butyl-phenyl)-N′-(4-methoxy-benzyl)-pyrimidine-4,6-diamine]
CC(C)(C)c1ccc(Nc2nc(NCc3ccccc3Cl)nc(NCc3ccccc3Cl)n2)cc1 [Compound 54, N-(4-tert-Butyl-phenyl)-N′,N″-bis-(2-chloro-benzyl)-[1,3,5]triazine-2,4,6-triamine]
COc1ccccc1CNc1nc(NCc2ccccc2OC)nc(Nc2ccc(C(C)(C)C)cc2)n1 [Compound 55, N-(4-tert-Butyl-phenyl)-N′,N″-bis-(2-methoxy-benzyl)-[1,3,5]triazine-2,4,6-triamine]
CC(C)(C)c1ccc(Nc2cc(NCc3ccccn3)ncn2)cc1 [Compound 56, N-(4-tert-Butyl-phenyl)-N′-pyridin-2-ylmethyl-pyrimidine-4,6-diamine]
CC(C)(C)c1ccc(Nc2cc(NCc3cccnc3)ncn2)cc1 [Compound 57, N-(4-tert-Butyl-phenyl)-N′-pyridin-3-ylmethyl-pyrimidine-4,6-diamine]
CC(C)(C)c1ccc(Nc2cc(NCc3ccncc3)ncn2)cc1 [Compound 58, N-(4-tert-Butyl-phenyl)-N′-pyridin-4-ylmethyl-pyrimidine-4,6-diamine]
CCN(CC)c1nc(Nc2ccc(C(F)(F)F)cc2)nc(OCc2ccccc2C(F)(F)F)n1 [Compound 59, N,N-Diethyl-6-(2-trifluoromethyl-benzyloxy)-N′-(4-trifluoromethyl-phenyl)-[1,3,5]triazine-2,4-diamine]
CC(C)(C)c1ccc(Nc2cc(OCc3ccccc3C(F)(F)F)nc(N)n2)cc1 [Compound 60, N4-(4-tert-Butyl-phenyl)-6-(2-trilfuoromethyl-benzyloxy)-pyrimidine-2,4-diamine]

From patent US20070161637A1, “Substituted pyridin-2-ylamine analogues” (Neurogen Corporation, priority 2003, published 2007)
